“And” between values parts separate entries of the source, which are not always exact repeats. Equal values may be shown once.
Key:
HDV = assay: in vitro HDV infection of NTCP-HepG2 cells; assay type: cell-based; settings: 5–300 µM (2, 19) or 5–600 µM (4, 17), 6 h with 700 genome equivalents/cell, HDAg immunostaining day 9
Description: At day 9 post infection, cells were fixed and an immunostaining against the HDAg was performed, as a marker of HDV infection. The number of infected cells per well was determined by fluorescence microscopy. NTCP-HepG2 cells incubated without inhibitor were used as control (set to 100% infection rate). Infection experiments in the presence of 0.5 µM myr-preS1_2-48 peptide served as control for the 0% infection rate. Scale bars: 100 µm. Data represent means ± SEM of three independent experiments each with triplicate determinations (n = 9). […] Data were combined from two independent experiments, each with quadruplicate determinations (n = 8). (h) Cell viability was determined with an LDH cytotoxicity assay. HepG2 cells treated with HGM w/o test compound were used as positive control and lysed cells as negative control.
For infection experiments NTCP-HepG2 cells were cultured in 96-well plates in Hepatocyte Growth Medium (HGM) consisting of William’s E Medium (Thermo Fisher Scientific) containing 2% bovine serum albumin (BSA, Roth), 2 mM L-Glutamin (Thermo Fisher Scientific), 100 µg/ml gentamicin (Thermo Fisher Scientific), 10 nM dexamethasone (Sigma-Aldrich), 1 mM sodium pyruvate (Thermo Fisher Scientific), 1 × Insulin-Transferrin-Selen (Thermo Fisher Scientific), 2% DMSO (Merck, Darmstadt, Germany), 4% polyethylene glycol (Sigma-Aldrich) and 2 µg/ml doxycycline (Sigma-Aldrich) as reported. Subsequently, cells were washed with DMEM and cultured in HGM supplemented with 2% DMSO, 2% BSA and 2 µg/ml doxycycline. […] HDV stock solved in 20 µl HGM per well was added for infection and cells were incubated for 6 h with final concentration of 700 genome equivalents/cell of HDV particles. HDV production was done in vitro as described before[55],[56]. RT-qPCR was performed to determine genome equivalents. Every three days medium was changed until cells were fixed at 9 days post infection with 3% paraformaldehyde (Sigma-Aldrich) in PBS, for 30 min at room temperature (RT). Cells were permeabilized with 0.2% Triton X 100 (Roth) in PBS for 30 min at RT, and blocked by incubation with 5% bovine serum albumin (Roth) in PBS, for 30 min at RT. Then, cells were immunostained with purified human anti-HDV-positive serum at 37 °C for 1 h (1:400 dilution). Goat anti-human IgG secondary antibody coupled to Alexa Fluor fluorophore (1:400 dilution, Thermo Fisher Scientific) was added for 1 h at 37 °C for detection of Hepatitis Delta antigen (HDAg) as described before.

rats = settings: single i.p. application of 400 mg/kg; cited from earlier work
mice = settings: cited from earlier work
NTCP [1] = molecular target: T1, NTCP (Homo sapiens, UniProt Q14973); assay: [3H]TC transport (bile acid uptake) inhibition in NTCP-HEK293 cells; assay type: cell-based; settings: read-out: IC50 ([3H]TC uptake)
T1 construct: expressed in transfected cells
T1 sequence (Q14973 1-349): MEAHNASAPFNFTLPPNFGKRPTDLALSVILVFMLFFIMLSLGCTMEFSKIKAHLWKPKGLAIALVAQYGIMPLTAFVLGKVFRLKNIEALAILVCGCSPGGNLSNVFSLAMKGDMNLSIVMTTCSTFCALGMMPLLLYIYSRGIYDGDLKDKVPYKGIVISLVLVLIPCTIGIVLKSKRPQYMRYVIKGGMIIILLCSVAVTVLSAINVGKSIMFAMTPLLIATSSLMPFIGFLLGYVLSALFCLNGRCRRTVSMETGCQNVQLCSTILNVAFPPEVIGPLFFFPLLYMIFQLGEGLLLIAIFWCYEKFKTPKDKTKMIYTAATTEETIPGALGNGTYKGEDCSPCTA
Description: (§1) The major goal of the present study was to analyze in parallel the effect of inhibitors on both, bile acid transport via NTCP and myr-preS1_2-48 lipopeptide binding to NTCP in a cell culture system. […] NTCP-HEK293 cells were seeded onto 96-well plates and were incubated with tetracycline in order to induce expression of the human NTCP protein. […] Experiments were performed with solvent alone (set to 100%) and with increasing concentrations of the indicated inhibitors. […] Half maximal inhibitory concentrations (IC50) were calculated by nonlinear regression analysis using the equation log(inhibitor) versus response (GraphPad Prism). […] Data represent means ± SD of quadruplicate determinations of representative experiments. […] In parallel, [^3H]preS1 peptide binding experiments were performed with a tritium-labelled myr-preS1_2-48 lipopeptide -HBV subgenotype D3- that was purchased from Pharmaron (120 Ci/mmol, 1 mCi/ml, Cardiff, UK). […] Experiments were stopped after 10 min by two-times washing with ice-cold PBS. For 0% uptake/binding control, the NTCP-HEK293 cells were not induced with tetracycline (-tet). […] Transport rates and [^3H]preS1 binding were determined in counts per minute (cpm). […] IC50 values were calculated from quadruplicate determinations by GraphPad Prism 6 (GraphPad, San Diego, CA, USA).

NTCP [2] = molecular target: T1, NTCP; assay: [3H]preS1 (myr-preS1_2-48 lipopeptide) binding inhibition in NTCP-HEK293 cells; settings: for IC50: NTCP-HEK293 cells; for Selectivity index: ratio of mean IC50 [3H]TC transport inhibition / IC50 [3H]preS1 binding inhibition
Description: as §1

[3] = 95% confidence interval, inhibition of 1 µM [3H]TC uptake, NTCP-HEK293 cells, 10 min, 37 °C
[4] = 95% confidence interval, inhibition of 5 nM [3H]preS1 binding, 10 min, 37 °C, read-out: IC50 ([3H]preS1 binding)
[5] = mean IC50, 5 nM [3H]preS1, standard pH 7.4, read-out: IC50 [3H]preS1 binding inhibition

Compound | inhibition of in vitro HDV infection (HDV) | IC50 (NTCP [1]; [3]) | IC50 (NTCP [2]; [4]) | Selectivity index (NTCP [2]) | other results
C=C(C)[C@@H]1CC[C@]2(C(=O)O)CC[C@]3(C)[C@H](CC[C@@H]4[C@@]5(C)CC[C@H](O)C(C)(C)[C@@H]5CC[C@]43C)[C@@H]12 [Compound 4, Betulinic acid] | significantly blocked | – | – | – | toxic effects in rats (rats): no toxic effects were observed; toxic effects in mice, repeated dose (mice; 100 mg/kg i.p. every 3–4 days for a total of six treatments): no toxic effects were observed; toxic effects in mice, single dose (mice; 500 mg/kg i.p. once): no toxic effects were observed
C=C(C)[C@@H]1CC[C@]2(COC(=O)c3cccnc3)CC[C@]3(C)[C@H](CC[C@@H]4[C@@]5(C)CC[C@H](O)C(C)(C)[C@@H]5CC[C@]43C)[C@@H]12 [Compound 14, 28-O-Nicotinoylbetulin] | – | 185 to 532 µM | 36.5 to 109 µM | 5 | –
C=C(C)[C@@H]1CC[C@]2(COC(=O)/C=C/c3ccccc3)CC[C@]3(C)[C@H](CC[C@@H]4[C@@]5(C)CC[C@H](O)C(C)(C)[C@@H]5CC[C@]43C)[C@@H]12 [Compound 15, 28-O-Cinnamoylbetulin] | – | 72.4 to 236 µM | 10.9 to 31.8 µM | 7 | –
C=C(C)[C@@H]1CC[C@]2(COC(=O)CCc3ccccc3)CC[C@]3(C)[C@H](CC[C@@H]4[C@@]5(C)CC[C@H](OC(=O)CCc6ccccc6)C(C)(C)[C@@H]5CC[C@]43C)[C@@H]12 [Compound 16, 3,28-Di-O-(dihydrocinnamoyl)betulin] | – | 176 to 1230 µM | 24.8 to 229 µM | 6 | –
C=C(C)[C@@H]1CC[C@]2(C)CC[C@]3(C)[C@H](CC[C@@H]4[C@@]5(C)CCC(=O)C(C)(C)[C@@H]5CC[C@]43C)[C@@H]12 [Compound 17, Lupenone] | significantly blocked | – | – | – | IC50 (NTCP [1]): 146 to 397 µM; IC50 (NTCP [2]; IC50 ([3H]preS1 binding), 95% confidence interval, inhibition of 5 nM [3H]preS1 binding, 10 min, 37 °C): 13.1 to 35.5 µM; IC50 (NTCP [2]; IC50 [3H]preS1 binding inhibition, mean IC50, 5 nM [3H]preS1, standard pH 7.4): 11 to 50 µM
C=C(C)[C@@H]1CC[C@]2(C(=O)N[C@@H](CC(=O)OC)C(=O)OC)CC[C@]3(C)[C@H](CC[C@@H]4[C@@]5(C)CCC(=O)C(C)(C)[C@@H]5CC[C@]43C)[C@@H]12 [Compound 19, Betulonoyl dimethyl-L-aspartate] | significantly blocked | 298 to 1430 µM | – | 28 | IC50 (NTCP [2]; [5]): 11 to 50 µM
C=C(C)[C@@H]1CC[C@]2(C(=O)O)CC[C@]3(C)[C@H](CC[C@@H]4[C@@]5(C)CC[C@H](OC(C)=O)C(C)(C)[C@@H]5CC[C@]43C)[C@@H]12 [Compound 21, 3-O-Acetylbetulinic acid] | – | 7.19 to 30.3 µM | 1.81 to 5.31 µM | 5 | IC50 (NTCP [2]; [5]): 2 to 3 µM and < 10 µM
C=C(C)[C@@H]1CC[C@]2(CO)CC[C@]3(C)[C@H](CC[C@@H]4[C@@]5(C)CC[C@H](OC(C)=O)C(C)(C)[C@@H]5CC[C@]43C)[C@@H]12 [Compound 22, 3-O-Acetylbetulin] | – | 36.5 to 152 µM | 20.6 to 87.4 µM | 2 | –

— publication PMC7729925, “Selective hepatitis B and D virus entry inhibitors from the group of pentacyclic lupane-type betulin-derived triterpenoids” (Scientific Reports, 2020)
